Results taken from patent US12668594B2, “TYK2 inhibitors and uses thereof” (Sudo Biosciences Limited, priority 2020, dated 2026).

Columns and labels:
TYK2 [1] = molecular target: T1, TYK2 (Homo sapiens, UniProt P29597); experiment: HEK-Blue IFNα/β reporter assay (SEAP) for TYK2 pseudokinase inhibition; assay type: cell-based; conditions: HEK-Blue IFNα/β cells, 1 ng/mL human recombinant IFNα
Experimental: (§1) HEK-Blue™ IL-23 and IFNα/β cells with a stably-integrated cytokine receptor and STAT3 or STAT1 express STAT-inducible secreted embryonic alkaline phosphatase (SEAP) reporter gene upon cytokine stimulation. These cells are plated in DMVEM (Gibco) containing 10% heat-inactivated FBS (Gibco) and 100 U/mL PenStrep (Gibco) at 37° C. under […] conditions for 20-22 hours. The cells are then pretreated with serially diluted test compounds for 60 min prior to stimulation with either 10 ng/mL human recombinant IL-23 (Miltenyl Biotech) or 1 ng/mL human recombinant IFNα (InvivoGen) for 22-24 hours for IL-23 or 16-18 h for IFNα. SEAP induction is measured using the QUANTI Blue™ Solution (InvivoGen) according to the manufacturer's instructions. Inhibition data are calculated by comparison to no inhibitor control wells for 000 inhibition and non-stimulated control wells for 10000 inhibition. Dose response curves are generated to determine the concentration required to inhibit 5000 of cellular response (IC50) as derived by non-linear regression analysis.

TYK2 [2] = molecular target: T1, TYK2; experiment: HEK-Blue IL-23 reporter assay (SEAP) for TYK2 pseudokinase inhibition; assay type: cell-based; set-up: HEK-Blue™ IL-23 and IFNα/β cells with a stably-integrated cytokine receptor and STAT3 or STAT1; host or cells: HEK-Blue IL-23 / HEK-Blue IFNα/β cells (HEK293 background); conditions: HEK-Blue IL-23 cells, 10 ng/mL human recombinant IL-23, SEAP reporter; read-out: IL23 IC50
Experimental: as §1

T1 sequence (P29597 whole entry): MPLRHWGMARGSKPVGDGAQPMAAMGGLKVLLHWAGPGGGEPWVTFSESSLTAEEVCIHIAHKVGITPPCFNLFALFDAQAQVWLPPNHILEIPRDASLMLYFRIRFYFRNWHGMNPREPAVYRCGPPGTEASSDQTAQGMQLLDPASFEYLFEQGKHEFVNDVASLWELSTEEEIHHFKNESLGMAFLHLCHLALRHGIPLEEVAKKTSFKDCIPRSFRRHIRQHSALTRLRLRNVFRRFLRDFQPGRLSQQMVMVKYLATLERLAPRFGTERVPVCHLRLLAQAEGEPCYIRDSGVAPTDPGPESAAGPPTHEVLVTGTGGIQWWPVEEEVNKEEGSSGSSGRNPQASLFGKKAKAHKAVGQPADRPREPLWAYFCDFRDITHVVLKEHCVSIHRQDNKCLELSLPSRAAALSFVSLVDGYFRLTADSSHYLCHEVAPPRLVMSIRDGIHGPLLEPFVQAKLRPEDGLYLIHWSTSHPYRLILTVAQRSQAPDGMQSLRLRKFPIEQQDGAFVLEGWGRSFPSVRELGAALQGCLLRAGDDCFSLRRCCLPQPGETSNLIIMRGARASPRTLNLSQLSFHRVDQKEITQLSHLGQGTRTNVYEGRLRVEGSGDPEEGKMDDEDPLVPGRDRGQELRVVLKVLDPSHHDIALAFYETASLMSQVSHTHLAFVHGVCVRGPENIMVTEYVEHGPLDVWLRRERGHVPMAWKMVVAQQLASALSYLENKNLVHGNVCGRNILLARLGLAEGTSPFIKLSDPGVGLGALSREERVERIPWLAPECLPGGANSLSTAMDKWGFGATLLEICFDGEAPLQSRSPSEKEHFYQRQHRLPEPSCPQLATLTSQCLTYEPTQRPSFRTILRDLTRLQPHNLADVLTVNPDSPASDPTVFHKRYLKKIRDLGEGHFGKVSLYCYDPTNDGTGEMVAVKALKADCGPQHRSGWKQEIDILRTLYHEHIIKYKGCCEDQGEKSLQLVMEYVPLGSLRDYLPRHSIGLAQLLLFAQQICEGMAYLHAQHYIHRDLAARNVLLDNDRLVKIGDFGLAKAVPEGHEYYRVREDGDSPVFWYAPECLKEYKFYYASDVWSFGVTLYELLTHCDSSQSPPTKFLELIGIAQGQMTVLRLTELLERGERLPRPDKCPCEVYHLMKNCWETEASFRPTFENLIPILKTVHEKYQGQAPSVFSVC

IC50 (TYK2 [1]) [µM]	IC50 (TYK2 [2]) [µM]	SMILES
> 90	< 10	COc1cc(-n2[nH]c(=O)c3cnc(Nc4cc(C)nc(C)n4)cc32)ccc1C#N [Compound I-80, 4-(6-((2,6-dimethylpyrimidin-4-yl)amino)-3-oxo-2,3-dihydro-1H-pyrazolo[4,3-c]pyridin-1-yl)-2-methoxybenzonitrile]
< 10	< 10	COc1cc(-n2[nH]c(=O)c3cnc(Nc4cc(C)nc(C)n4)cc32)ccn1 [Compound I-83, 6-((2,6-dimethylpyrimidin-4-yl)amino)-1-(2-methoxypyridin-4-yl)-1,2-dihydro-3H-pyrazolo[4,3-c]pyridin-3-one]
< 10	< 10	Cc1cc(Nc2cc3c(cn2)c(=O)[nH]n3-c2cccc(Cl)c2)nc(C)n1 [Compound I-31, 1-(3-chlorophenyl)-6-((2,6-dimethylpyrimidin-4-yl)amino)-1,2-dihydro-3H-pyrazolo[4,3-c]pyridin-3-one]
> 90	> 90	COc1c(Cl)cccc1-n1[nH]c(=O)c2cnc(Nc3cc(C)nc(C)n3)cc21 [Compound I-101, 1-(3-chloro-2-methoxyphenyl)-6-((2,6-dimethylpyrimidin-4-yl)amino)-1,2-dihydro-3H-pyrazolo[4,3-c]pyridin-3-one]
> 90	> 90	Cc1cc(Nc2cc3c(cn2)c(=O)[nH]n3-c2ccc(Cl)c(Cl)c2)nc(C)n1 [Compound I-85, 1-(3,4-dichlorophenyl)-6-((2,6-dimethylpyrimidin-4-yl)amino)-1,2-dihydro-3H-pyrazolo[4,3-c]pyridin-3-one]
< 10	< 10	COc1cc(-n2[nH]c(=O)c3cnc(Nc4cc(C)nc(C)n4)cc32)ccc1F [Compound I-76, 6-((2,6-dimethylpyrimidin-4-yl)amino)-1-(4-fluoro-3-methoxyphenyl)-1,2-dihydro-3H-pyrazolo[4,3-c]pyridin-3-one]
< 10	> 90	COc1cccc(-n2[nH]c(=O)c3cnc(Nc4cc(C)ncn4)cc32)c1 [Compound I-47, 1-(3-methoxyphenyl)-6-((6-methylpyrimidin-4-yl)amino)-1,2-dihydro-3H-pyrazolo[4,3-c]pyridin-3-one]
< 10	< 10	O=C(Nc1cc2c(cn1)c(=O)[nH]n2-c1ccc(C(F)(F)F)cc1)C1CC1 [Compound I-68, N-(3-oxo-1-(4-(trifluoromethyl)phenyl)-2,3-dihydro-1H-pyrazolo[4,3-c]pyridin-6-yl)cyclopropanecarboxamide]
30 to 90	10 to 30	COc1ccccc1-n1[nH]c(=O)c2cnc(NC(=O)C3CC3)cc21 [Compound I-15, N-(1-(2-methoxyphenyl)-3-oxo-2,3-dihydro-1H-pyrazolo[4,3-c]pyridin-6-yl)cyclopropanecarboxamide]
< 10	< 10	Cc1cc(Nc2cc3c(cn2)c(=O)[nH]n3-c2ccc(C#N)c(F)c2)nc(C)n1 [Compound I-90, 4-(6-((2,6-dimethylpyrimidin-4-yl)amino)-3-oxo-2,3-dihydro-1H-pyrazolo[4,3-c]pyridin-1-yl)-2-fluorobenzonitrile]
< 10	< 10	O=C(Nc1cc2c(cn1)c(=O)[nH]n2-c1cccc(F)c1)C1CC1 [Compound I-61, N-(1-(3-fluorophenyl)-3-oxo-2,3-dihydro-1H-pyrazolo[4,3-c]pyridin-6-yl)cyclopropanecarboxamide]
30 to 90	< 10	Cc1ccccc1-n1[nH]c(=O)c2cnc(Nc3ccc(F)cn3)cc21 [Compound I-106, 6-((5-fluoropyridin-2-yl)amino)-1-(0-tolyl)-1,2-dihydro-3H-pyrazolo[4,3-c]pyridin-3-one]
< 10	< 10	N#Cc1ccc(-n2[nH]c(=O)c3cnc(NC(=O)C4CC4)cc32)cc1Cl [Compound I-89, N-(1-(3-chloro-4-cyanophenyl)-3-oxo-2,3-dihydro-1H-pyrazolo[4,3-c]pyridin-6-yl)cyclopropanecarboxamide]
< 10	< 10	COc1cccc(-n2[nH]c(=O)c3cnc(Nc4ccc(F)cn4)cc32)c1 [Compound I-39, 6-((5-fluoropyridin-2-yl)amino)-1-(3-methoxyphenyl)-1,2-dihydro-3H-pyrazolo[4,3-c]pyridin-3-one]
< 10	< 10	COc1ccc(Nc2cc3c(cn2)c(=O)[nH]n3-c2cccc(OC)c2)nc1 [Compound I-41, 1-(3-methoxyphenyl)-6-((5-methoxypyridin-2-yl)amino)-1,2-dihydro-3H-pyrazolo[4,3-c]pyridin-3-one]
< 10	< 10	O=C(Nc1cc2c(cn1)c(=O)[nH]n2-c1ccc(OC(F)(F)F)cc1)C1CC1 [Compound I-71, N-(3-oxo-1-(4-(trifluoromethoxy)phenyl)-2,3-dihydro-1H-pyrazolo[4,3-c]pyridin-6-yl)cyclopropanecarboxamide]
> 90	10 to 30	COc1c(Cl)cccc1-n1[nH]c(=O)c2cnc(Nc3ccc(F)cn3)cc21 [Compound I-102, 1-(3-chloro-2-methoxyphenyl)-6-((5-fluoropyridin-2-yl)amino)-1,2-dihydro-3H-pyrazolo[4,3-c]pyridin-3-one]
30 to 90	10 to 30	Cn1cc(Nc2cc3c(cn2)c(=O)[nH]n3-c2ccccc2)cn1 [Compound I-5, 6-((1-methyl-1H-pyrazol-4-yl)amino)-1-phenyl-1,2-dihydro-3H-pyrazolo[4,3-c]pyridin-3-one]
> 90	10 to 30	COc1cccc(-n2[nH]c(=O)c3cnc(Nc4cc(C)nc(C)n4)c(F)c32)c1 [Compound I-24, 6-((2,6-dimethylpyrimidin-4-yl)amino)-7-fluoro-1-(3-methoxyphenyl)-1,2-dihydro-3H-pyrazolo[4,3-c]pyridin-3-one]
< 10	< 10	N#Cc1ccc(-n2[nH]c(=O)c3cnc(Nc4ccc(F)cn4)cc32)cc1 [Compound I-64, 4-(6-((5-fluoropyridin-2-yl)amino)-3-oxo-2,3-dihydro-1H-pyrazolo[4,3-c]pyridin-1-yl)benzonitrile]
> 90	30 to 90	COc1ccccc1-n1[nH]c(=O)c2cnc(Nc3ccc(F)cn3)cc21 [Compound I-16, 6-((5-fluoropyridin-2-yl)amino)-1-(2-methoxyphenyl)-1,2-dihydro-3H-pyrazolo[4,3-c]pyridin-3-one]
< 10	< 10	COc1cccc(-n2[nH]c(=O)c3cnc(Nc4cnccn4)cc32)c1 [Compound I-53, 1-(3-methoxyphenyl)-6-(pyrazin-2-ylamino)-1,2-dihydro-3H-pyrazolo[4,3-c]pyridin-3-one]
< 10	> 90	O=c1[nH]n(-c2cccc(F)c2)c2cc(Nc3ccc(F)cn3)ncc12 [Compound I-60, 1-(3-fluorophenyl)-6-((5-fluoropyridin-2-yl)amino)-1,2-dihydro-3H-pyrazolo[4,3-c]pyridin-3-one]
< 10	< 10	COc1cccc(-n2[nH]c(=O)c3cnc(Nc4cc(C#N)ccn4)cc32)c1 [Compound I-44, 2-((1-(3-methoxyphenyl)-3-oxo-2,3-dihydro-1H-pyrazolo[4,3-c]pyridin-6-yl)amino)isonicotinonitrile]
< 10	< 10	Cc1cc(Nc2cc3c(cn2)c(=O)[nH]n3-c2cccc(C(F)(F)F)c2)nc(C)n1 [Compound I-57, 6-((2,6-dimethylpyrimidin-4-yl)amino)-1-(3-(trifluoromethyl)phenyl)-1,2-dihydro-3H-pyrazolo[4,3-c]pyridin-3-one]
> 90	> 90	CC(C)(C)OC(=O)Nc1cc2c(cn1)c(=O)[nH]n2-c1ccccc1 [Compound I-35, tert-butyl N-{3-oxo-1-phenyl-1H,2H,3H-pyrazolo[4,3-c]pyridin-6-yl}carbamate]
< 10	< 10	Cc1cc(Nc2cc3c(cn2)c(=O)[nH]n3-c2cccc(OC(F)(F)F)c2)nc(C)n1 [Compound I-28, 6-((2,6-dimethylpyrimidin-4-yl)amino)-1-(3-(trifluoromethoxy)phenyl)-1,2-dihydro-3H-pyrazolo[4,3-c]pyridin-3-one]
10 to 30	< 10	Cc1nc(Nc2cc3c(cn2)c(=O)[nH]n3-c2ccccc2)cc(OC(C)C)n1 [Compound I-8, 6-((6-isopropoxy-2-methylpyrimidin-4-yl)amino)-1-phenyl-1,2-dihydro-3H-pyrazolo[4,3-c]pyridin-3-one]
< 10	< 10	COC(=O)c1ccc(-n2[nH]c(=O)c3cnc(Nc4cc(C)nc(C)n4)cc32)cc1 [Compound I-74, methyl 4-(6-((2,6-dimethylpyrimidin-4-yl)amino)-3-oxo-2,3-dihydro-1H-pyrazolo[4,3-c]pyridin-1-yl)benzoate]
> 90	> 90	COc1cc(-n2[nH]c(=O)c3cnc(Nc4cc(C)nc(C)n4)cc32)ccc1Cl [Compound I-78, 1-(4-chloro-3-methoxyphenyl)-6-((2,6-dimethylpyrimidin-4-yl)amino)-1,2-dihydro-3H-pyrazolo[4,3-c]pyridin-3-one]
